The data set deals with ATP-binding cassette sub-family C member 2 (Rattus norvegicus, UniProt Q63120). In words: TP_TRANSPORTER: Northern blot from primary hepatocytes. It counts as functional, cell-based, Hepatocyte.
Chain of ATP-binding cassette sub-family C member 2 (Q63120 whole entry): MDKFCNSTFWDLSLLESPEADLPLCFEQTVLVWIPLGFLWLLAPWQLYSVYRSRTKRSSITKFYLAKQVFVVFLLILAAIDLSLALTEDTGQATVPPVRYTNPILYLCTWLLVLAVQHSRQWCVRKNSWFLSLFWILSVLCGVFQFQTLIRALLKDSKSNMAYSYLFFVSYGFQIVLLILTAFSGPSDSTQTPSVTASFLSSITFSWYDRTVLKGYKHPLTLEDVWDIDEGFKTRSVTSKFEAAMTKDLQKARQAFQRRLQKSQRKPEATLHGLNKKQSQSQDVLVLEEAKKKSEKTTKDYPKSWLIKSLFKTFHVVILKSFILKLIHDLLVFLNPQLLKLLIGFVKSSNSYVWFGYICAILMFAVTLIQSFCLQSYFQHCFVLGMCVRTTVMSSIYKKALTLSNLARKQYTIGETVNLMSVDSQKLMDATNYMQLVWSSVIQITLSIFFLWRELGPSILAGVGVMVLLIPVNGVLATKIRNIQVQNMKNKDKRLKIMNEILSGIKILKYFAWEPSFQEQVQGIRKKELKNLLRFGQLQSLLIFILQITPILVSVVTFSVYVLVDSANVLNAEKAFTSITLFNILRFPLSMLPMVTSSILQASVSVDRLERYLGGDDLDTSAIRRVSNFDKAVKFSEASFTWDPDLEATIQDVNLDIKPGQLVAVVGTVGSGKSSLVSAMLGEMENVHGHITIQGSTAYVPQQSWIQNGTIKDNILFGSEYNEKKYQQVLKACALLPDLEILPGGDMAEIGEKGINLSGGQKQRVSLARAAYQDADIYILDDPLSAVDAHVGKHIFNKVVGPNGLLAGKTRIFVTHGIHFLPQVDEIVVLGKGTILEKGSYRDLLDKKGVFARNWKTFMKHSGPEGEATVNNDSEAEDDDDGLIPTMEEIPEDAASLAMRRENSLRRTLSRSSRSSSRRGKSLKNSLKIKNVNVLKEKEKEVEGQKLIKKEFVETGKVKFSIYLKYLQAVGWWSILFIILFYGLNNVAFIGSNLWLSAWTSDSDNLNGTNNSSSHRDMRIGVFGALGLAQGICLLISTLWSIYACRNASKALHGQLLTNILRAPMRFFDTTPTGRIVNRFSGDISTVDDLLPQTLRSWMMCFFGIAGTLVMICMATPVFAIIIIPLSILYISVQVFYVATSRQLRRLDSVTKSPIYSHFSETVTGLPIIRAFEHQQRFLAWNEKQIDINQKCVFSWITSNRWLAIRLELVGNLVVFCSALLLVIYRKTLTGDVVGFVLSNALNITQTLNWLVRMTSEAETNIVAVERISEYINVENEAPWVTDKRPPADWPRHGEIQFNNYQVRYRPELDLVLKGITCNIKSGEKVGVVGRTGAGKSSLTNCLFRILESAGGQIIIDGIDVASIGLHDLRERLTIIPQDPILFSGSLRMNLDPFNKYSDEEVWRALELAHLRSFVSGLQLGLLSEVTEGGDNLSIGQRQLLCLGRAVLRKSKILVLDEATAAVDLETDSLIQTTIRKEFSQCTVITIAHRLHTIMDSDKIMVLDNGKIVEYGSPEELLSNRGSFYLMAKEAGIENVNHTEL

For `C[C@@H]1C[C@@H]([C@H](O)CC2CC(=O)NC(=O)C2)C(=O)[C@@H](C)C1` [CYCLOHEXIMIDE], the Activity result was “inducer [+]”.

Values taken from ChEMBL document CHEMBL2073832, “Induction of cMrp/cMoat gene expression by cisplatin, 2-acetylaminofluorene, or cycloheximide in rat hepatocytes” (Hepatology, 1997).
